Assay results as given in patent publication US5112835A, “6-substituted acyclopyrimidine nucleoside derivatives and antiviral agents containing the same as active ingredient thereof” (Mitsubishi Kasei Corporation, priority 1988, dated 1992).

Experiments:
HIV [1] = test: Inhibitory activity for HIV proliferation (HIV antigen expression in HUT-78 cells, indirect immunofluorescence assay); assay type: cell-based
Procedure: In the same culture as that for the MT-4 cells, HUT-78 cells (human T cell clone which is not destroyed by the infection of HIV and releases HIV) were infected with HIV in an amount of 0.4 HIV per HUT-78 cell. Immediately thereafter, a predetermined concentration of 1-[(2-hydroxyethoxy)methyl]-6-phenylthiothymine was added to the culture medium and the cells were cultured at 37° C.
Every four days, 3/4 of the culture solution was exchanged and after 12 days of incubation the number of the cells positive to an HIV antigen was counted by indirect immunofluorescence assay using HIV antiserum (positive to the coating protein and core protein of HIV) which had been obtained from an HIV-infected patient.
For comparison, a similar experiment was carried out by using 2',3'-dideoxyadenosine.

HUT-78 cells = test: Toxicity to HUT-78 cells; assay type: cell-based, human; details: 100 μM
host cell = details: background art statement; clinical treatment of HIV-infection; cited from earlier work
HIV [2] = test: Inhibitory activity for HIV infection (preventing the death of 50% of the MT-4 cells); assay type: cell-based; details: Human immunodeficiency virus 1, MT4, 120 h, 5 days of incubation, 37° C., read-out: 50% inhibitory concentration of HIV infection
Procedure: (§1) In RPMI 1640 DM culture medium containing 20 mM of Hepes buffer solution, 10% fetal bovine serum and 20 µg/ml of gentamycin, 3×10^4 MT-4 cells (human T cell clone which is destroyed by the infection of HIV) were infected with HIV in an amount of 100 times as large as expected to cause 50% infection of the cells. Immediately thereafter, a predetermined amount of sample was added to the culture medium using 50 mg/ml sample solutions in dimethyl sulfoxide and the cells were cultured at 37° C.
(§2) After 5 days of incubation, the number of existing cells was counted to determine the concentration of the compound for preventing the death of 50% of the MT-4 cells. Separately, MT-4 cells were cultured in the same way as above except that they were not infected with HIV to determine the concentration of the compound at which 50% of the MT-4 cells were destroyed.

[3] = Cytotoxicity to MT-4 cells (not infected with HIV); assay type: cell-based; details: human, 5 days, 37° C., read-out: 50% cytotoxic concentration to MT-4 cells
Procedure: as §1, §2

Nc1ncnc2c1ncn2[C@H]1CC[C@@H](CO)O1 [2',3'-dideoxyadenosine, reference compound]
prevention of the expression of the HIV antigen (HIV [1]; at a similar concentration to the present compound (20 μM)): completely prevented the expression of the antigen
toxicity to the HUT-78 cells (HUT-78 cells): significant toxicity to the HUT-78 cells

Cc1cn([C@H]2C[C@H](N=[N+]=[N-])[C@@H](CO)O2)c(=O)[nH]c1=O [3'-deoxy-3'-azidothymidine]
toxicity in the host cell (host cell): considerable toxicity in the host cell

Cc1c(Sc2ccccc2)n(COCCO)c(=O)[nH]c1=O [compound 1, 1-[(2-hydroxyethoxy)methyl]-6-phenylthiothymine]
IC50 (HIV [2]): 7 µM
CC50 at 120 h [3]: > 250 µM
prevention of the expression of the HIV antigens (HIV [1]; 20 μM, 12 days of incubation): completely prevented the expression of the antigens
IC50 (HIV [1]; Human immunodeficiency virus 1, HuT78, 288 h, 12 days of incubation, indirect immunofluorescence, read-out: 50% inhibitory concentration (expression of HIV antigens)): 5.2 µM
toxicity to the HUT-78 cells (HUT-78 cells): no toxicity to the HUT-78 cells was observed

Cc1cccc(Sc2c(C)c(=O)[nH]c(=O)n2COCCO)c1 [compound 7]
IC50 (HIV [2]): 5.1 µM
CC50 at 120 h [3]: > 250 µM

Cc1c(Sc2cccc(Cl)c2)n(COCCO)c(=O)[nH]c1=O [compound 10]
IC50 (HIV [2]): 13 µM
CC50 at 120 h [3]: > 250 µM

COc1ccccc1Sc1c(C)c(=O)[nH]c(=O)n1COCCO [compound 12]
IC50 (HIV [2]): 19 µM
CC50 at 120 h [3]: > 250 µM

COc1cccc(Sc2c(C)c(=O)[nH]c(=O)n2COCCO)c1 [compound 13]
IC50 (HIV [2]): 22 µM
CC50 at 120 h [3]: > 250 µM

Cc1c(Sc2cccc([N+](=O)[O-])c2)n(COCCO)c(=O)[nH]c1=O [compound 17]
IC50 (HIV [2]): 34 µM
CC50 at 120 h [3]: > 250 µM

Cc1c(SC2CCCCC2)n(COCCO)c(=O)[nH]c1=O [compound 25]
IC50 (HIV [2]): 18 µM
CC50 at 120 h [3]: > 250 µM

Cc1c(Sc2ccccc2)n(COCCO)c(=S)[nH]c1=O [compound 59, 1-[(2-hydroxyethoxy)methyl]-2-thio-6-phenylthiothymine]
IC50 (HIV [2]): 0.98 µM
CC50 at 120 h [3]: 125 µM
